Counter-ions that a name gives are not always drawn.
Legend:
[1] = tested on: anti-thyroxine; assay: Kinetic curve, rhodamine-labeled thyroxine/anti-thyroxine system in 0.5 M sodium benzoate with 5% isopropanol (Example 5); assay type: binding
Procedure: The protocol used is described below. The additive was sodium benzoate combined with an organic solvent (5% isopropanol). • 1. Use clean glassware, washed with isopropanol. • 2. Make a 0.5 M solution of sodium benzoate. • 3. Make a solution of 5% isopropanol in 0.5 M sodium benzoate (i.e., 2.5 ml 2-propanol in 47.5 mL 0.5 M aqueous sodium benzoate). This will be named BUFFER. • 4. […] 600 μl Buffer added to 1 mL curvette. The absorbance spectrum is measured using a UV-VIS spectrophotometer, 400 nm to 800 nm. This spectrum is used to define the absorbance of the background as zero and to control that it is actually zero. • 6. […] Measure the absorbance UV-VIS, 400 nm to 800 nm. […] Using a rotating polarometer with a 75 watt Xenon short-arc lamp. The rotating polarizer has three channels: Polarization (P), Total Intensity (V+H), and V−H. • 8. […] Measure P, V+H and V−H after short mixing and 30 second equilibration. […] Add 10 μl. Antibody solution (anti-thyroxine in PBS, dilution unknown, probably 5 mg in 1000 μl PBS and further diluted 1:10 in PBS). New volume is 3017 μl. Measure P, V+H and V−H after short mixing.

[2] = tested on: anti-thyroxine; assay: Velocity of the reaction between F-thyroxine and anti-thyroxine in the presence of BSA (Examples 8-16); assay type: binding; details: BSA 0.1 μM, increasing additive concentrations
Procedure: (§1) The buffer and stock solutions described in Example 1 and the measurement methodology described in Example 2 were used.
• Fluorescein-Thyroxine, 1 nM • Anti-Thyroxine (1:300) • PBS with 5% 2-propanol • BSA 0.1 μM • Sodium benzoate in different concentrations
• Fluorescein-Thyroxine, 1 nM • Anti-Thyroxine (1:300) • PBS with 5% 2-propanol • BSA 0.1 μM • Sodium p-toluene sulfonate in different concentrations
• Fluorescein-Thyroxine, 1 nM • Anti-Thyroxine (1:300) • PBS with 4.75% 2-propanol • BSA 0.1 μM • Potassium benzoate in different concentrations
• Fluorescein-Thyroxine, 1 nM • Anti-Thyroxine (1:300) • PBS with 4.75% 2-propanol • BSA 0.1 μM • Sodium chloroacetate in different concentrations
• Fluorescein-Thyroxine, 1 nM • Anti-Thyroxine (1:300) • PBS with 4.75% 2-propanol • BSA 0.1 μM • Sodium dichloroacetate in different concentrations
[…]. The buffer and stock solutions described in Example 1 and the measurement methodology described in Example 2 were used.
• Fluorescein-Thyroxine, 1.5 nM • Anti-Thyroxine (1:300) • PBS with 4.75% 2-propanol • BSA 0.1 μM • Sodium Salicylate in different concentrations
• Fluorescein-Thyroxine, 1.5 nM • Anti-Thyroxine (1:300) • PBS with 4.75% 2-propanol • BSA 0.1 μM • N-Hydroxysuccinimide in different concentrations
• Fluorescein-Thyroxine, 1.5 nM • Anti-Thyroxine (1:300) • PBS with 4.75% 2-propanol • BSA 0.1 μM • Sodium Chloride in different concentrations

[3] = tested on: anti-thyroxine; assay: Rate of the reaction between F-thyroxine and anti-thyroxine, with and without serum (Example 6); assay type: binding; details: experiments 6-3 through 6-7: serum, increasing sodium benzoate up to 1.0 M
Procedure: as §1
(§2) • Fluorescein-Thyroxine (1 nM) • Anti-Thyroxine (1:300 dilution) • PBS with 10% 2-propanol • Benzoate in different concentrations • At t=0 s antibody was pipetted into the cuvette. • A 3 ml cuvette was used, the total volume in the cuvette was 2 ml. A small magnetic stirrer was used for mixing
(§3) In example 6, the reactions between F-Thyroxine and Anti-Thyroxine, which were carried out in the presence of serum under different reaction conditions, are compared (FIG. 4). There are seven different amounts of sodium benzoate, between 0 and 1.0 Molar in the cuvette. The reaction was performed in a phosphate buffered saline buffer containing 10% 2-propanol. The table in FIG. 4 lists the two important parameters.

[4] = tested on: anti-thyroxine; assay: Velocity of the reaction between F-thyroxine and anti-thyroxine in the absence of non-specific binding components (Example 7); details: sodium benzoate increased to 1.0 molar; no serum or BSA; PBS with 5% 2-propanol, F-thyroxine 1 nM
Procedure: as §1
• Fluorescein-thyroxine, 1 nM • Anti-Thyroxine (1:300) • PBS with 5% 2-propanol • Sodium Benzoate in different concentrations

[5] = tested on: anti-thyroxine sera; assay: Effect of additive on specific binding of F-thyroxine to anti-thyroxine in the presence of human sera (Example 4); details: Buffer 2 (1.0 M sodium benzoate), 50 μl human sera, 20 or 50 μl anti-sera
Procedure: (§4) With reference to FIG. 2, experiments were performed to determine the effects of an additive on specific and non-specific binding. The additive used in the present example was sodium benzoate. The materials described in Example 1 and the measurement methodology described in Example 2 were used. In particular, 50 μl of human sera was added to 3000 μl of Buffer 2 or PBS at pH 7.5 (no additive control) and thoroughly mixed by pipetting for 1 to 10 seconds. To this was added 0 μl of unlabeled thyroxine and 0 μl, 20 μl or 50 μl of anti-sera stock solution. The mixture was thoroughly mixed by pipetting for 1 to 10 seconds. Then, 5 μl of the fluorescein-labeled thyroxine stock solution was added. This was followed by mixing for 1 to 10 seconds by pipetting. Then, d(V−H)/dt measurements were made versus time for between 10 and 600 seconds. This protocol was followed for Experiments 6-9 in Table 2.

[6] = tested on: human sera; assay: Effect of additive on non-specific binding of F-thyroxine in human sera (Example 4); details: Buffer 2 (1.0 M sodium benzoate), 50 μl human sera
Procedure: as §4

[7] = tested on: serum components; assay: Non-specific binding of Rhodamine-Thyroxine to serum components (Example 17); details: Rox-Thyroxine 1.5 nM, serum 1:500, PBS with 10% 2-propanol, sodium benzoate in different concentrations
Procedure: (§5) The serum was diluted 1:500 in PBS/10% 2-propanol The buffer and stock solutions, as well as the measurement methodology described in Example 5 were used.
(§6) • Rox-Thyroxine, 1.5 nM • Anti-Thyroxine (1:300) • PBS with 10% 2-propanol • Serum 1:500 • Sodium benzoate in different concentrations

[8] = tested on: serum components; assay: Initial non-specific binding between F-thyroxine and serum components (Example 6); details: experiments 6-3 through 6-7: serum, increasing sodium benzoate up to 1.0 M; reduced from 195
Procedure: as §1, §2, §3

[9] = tested on: anti-thyroxine; assay: Velocity of the reaction between Rhodamine-Thyroxine and anti-thyroxine in serum (Example 17); assay type: binding; details: Rox-Thyroxine 1.5 nM, serum 1:500, PBS with 10% 2-propanol, increasing sodium benzoate
Procedure: as §5, §6

[10] = tested on: polyclonal anti-thyroxine sera; assay: Fluorescence polarization kinetic measurement, F-thyroxine/anti-thyroxine system (Example 3); assay type: binding; details: Experiment 5: unlabeled thyroxine 0-20 μl, antiserum 20 μl, Buffer 1 (0.5 M sodium benzoate)
Procedure: An initial stock solution of anti-thyroxine sera was prepared. In particular, 1 ml of polyclonal anti-thyroxine sera containing 10 mg/ml IgG (Sigma) was diluted 1:5 in PBS buffer, pH 7.5. The final concentration of IgG in the stock solution was about 2 mg/ml.
An initial stock solution of fluorescein-labeled analyte (F-thyroxine) was prepared. Fluorescein-labeled thyroxine at 1248 g/mol in a lyophilized form was obtained from emp Biotech GmbH. First, 5 mg (4×10^−6 moles) of F-thyroxine was diluted to 10 ml in PBS to get a 4.1×10^−4 M solution of F-thyroxine. This solution was then further diluted 100-fold in PBS. The final concentration of F-thyroxine in the stock solution was about 4.1×10^−6 M.
The following is a protocol useful for performing a fluorescein polarization assay of the present invention. All steps are performed at ambient temperature. […] Pipette the mixture formed in step 5 up and down for 1 to 10 seconds and begin measuring polarization (P), Polarized Fluorescence Intensity Difference (V−H) or quenching (V+H total intensity) versus time for between 10 and 7200 seconds after end of mixing in a direct readout polarometer or between 0.1 and 7200 seconds after end of mixing with a stopped-flow polarometer. • 7. […] Against a standard curve, an unknown amount of thyroxine can be measured by comparison of initial rate measurement (speed of reaction) of unknown with the standard curve. […]

[11] = PBS with 4.75% 2-propanol, F-thyroxine 1.5 nM
[12] = PBS with 5% 2-propanol, F-thyroxine 1 nM
[13] = PBS with 4.75% 2-propanol, F-thyroxine 1 nM

Molecule: 5-carboxy-X-rhodamine-thyroxine [ROX-T4]
- values of P, V−H and V+H over the 600 second time course ([1]; 0.5 M sodium benzoate, 5% isopropanol): increase
- V − H ([1]; 10 s after antibody): 660
- V − H ([1]; 13 s after antibody): 860
- V − H ([1]; 18 s after antibody): 936
- V − H ([1]; 20 s after antibody): 1006
- V − H ([1]; 26 s after antibody): 1130
- V − H ([1]; 30 s after antibody): 1175
- V − H ([1]; 33 s after antibody): 1200
- V − H ([1]; 44 s after antibody): 1259
- V − H ([1]; 49 s after antibody): 1280
- V − H ([1]; 53 s after antibody): 1290
- P (mP) ([1]; 62 s after antibody): 392 mP
- P (mP) ([1]; 70 s after antibody): 395 mP
- V − H ([1]; 78 s after antibody): 1345
- V + H ([1]; 83 s after antibody): 3375
- P (mP) ([1]; 95 s after antibody): 397 mP
- P (mP) ([1]; 600 s after antibody): 398 mP
- V + H ([1]; 600 s after antibody): 3320
- V − H ([1]; 600 s after antibody): 1340
- P (mP) ([1]; before antibody, time 0 s): 75 mP
- V + H ([1]; before antibody, time 0 s): 2291
- V − H ([1]; before antibody, time 0 s): 178

Molecule: O=C1CCC(=O)N1O [N-hydroxysuccinimide]
- rate of the antibody reaction [2, 11]: substantially slowed

Molecule: N=C(N)N [guanidine hydrochloride]
- rate of the antibody reaction [2, 12]: substantially slowed

Molecule: O=C([O-])c1ccccc1.[K+] [potassium benzoate]
- rate of the antibody reaction [2, 13]: substantially slowed

Molecule: O=C([O-])c1ccccc1.[Na+] [sodium benzoate]
- reaction rate relative to its value at zero additive [3]: about 30%
- rate of change of P at t=5 s ([3]; PBS with 10% 2-propanol): 3.2 mP/s
- reaction rate between F-thyroxine and antibody [4]: slowed dramatically
- effect on specific binding [5]: does not inhibit specific binding
- rate of the antibody reaction [2, 12]: substantially slowed
- effect on non-specific binding [6]: inhibits non-specific binding
- non-specific binding due to the presence of serum components [7]: substantially reduced
- polarization value before the addition of antibody (t=0) [8]: 100 mP
- rate of the reaction [9]: substantially slowed

Molecule: [Cl-].[Na+] [sodium chloride]
- rate of the antibody reaction [2, 11]: not substantially slowed

Molecule: O=C([O-])CCl.[Na+] [sodium chloroacetate]
- rate of the antibody reaction [2, 13]: substantially slowed

Molecule: O=C([O-])C(Cl)Cl.[Na+] [sodium dichloroacetate]
- rate of the antibody reaction [2, 13]: substantially slowed

Molecule: Cc1ccc(S(=O)(=O)O)cc1.[Na] [sodium p-tolulene sulfonate, sodium p-toluene sulfonate]
- rate of the antibody reaction [2, 12]: substantially slowed

Molecule: O=C([O-])c1ccccc1O.[Na+] [sodium salicylate]
- rate of the antibody reaction [2, 11]: substantially slowed

Molecule: N[C@@H](Cc1cc(I)c(Oc2cc(I)c(O)c(I)c2)c(I)c1)C(=O)O [thyroxine]
- competitive inhibition of the binding of F-thyroxine to its specific antibody [10]: inhibition of the binding of F-thyroxine to its specific antibody by unlabeled thyroxine occurred

— patent US8124359B2, “Use of additives for the reduction of non-specific binding in assays” (Aokin AG, priority 2006, dated 2012)
